We go through one compound from PMC8042770, “Odorant Receptors for Detecting Flowering Plant Cues Are Functionally Conserved across Moths and Butterflies” (Molecular Biology and Evolution, 2020).

Assay [1] relates to HarmOR42 orthologs from 11 lepidopteran species. The assay is described as follows: Xenopus oocyte voltage clamp of HarmOR42 orthologs, six-odorant screen. Format: cell-based. Particulars: six compounds at 10^−4 M; 11 species. The text has this:
We gathered additional experimental evidence to support this conservation of a PAA-sensing function by performing in vitro functional characterization of HarmOR42 orthologs from 11 lepidopteran species belonging to eight families (fig. 5B). […] It should be noted that the species studied here included three Noctuidae species (H. armigera, H. assulta, and Mythimna separata), four moths from Bombycidae (Bombyx mori), Crambidae (Chilo suppressalis), Sphingidae (Manduca sexta), and Tortricidae (Grapholitha molesta) ([Mitter et al. 2017]; [Kawahara et al. 2019]), and four diurnal butterfly species from diverse families (Vanessa tameamea, Papilio xuthus, Danaus plexippus, and Pieris rapae) (fig. 5B). […]
Functional characterization of individual ORs was performed by heterologous expression in Xenopus oocytes combined with a two-electrode voltage-clamp system ([Wang et al. 2010]). […] After incubation in nutrient solution at 18 °C for 3–5 days, the response profile of each oocyte to multiple plant odorants was recorded via a two-electrode voltage clamp (OC-725C oocyte clamp, Warner Instruments, Hamden, CT) at a holding potential of −80 mV. Data were acquired by using a Digidata 1440 A and were analyzed by pCLAMP 10.2 software (Axon Instruments Inc., Union City, CA). […]

The test system of another assay is SlitOR14. Also on record: method as in de Fouchier et al. 2017. Particulars: ref de Fouchier et al. 2017; cited from earlier work.

In the case of `O=CCc1ccccc1` [Phenylacetaldehyde], the “ligand tuning of HarmOR42 orthologs” value in assay [1] is “robustly tuned to PAA as its best ligand”. Moreover, the “response of SlitOR14” value in the assay with SlitOR14 is “high specificity and sensitivity”.
